Data as given in patent US9156811B2 (priority 2008, dated 2015).
Where two headings read alike, the source gives them in different places.

Assays:
[1] = target: T. brucei N-myristoyl transferase (Trypanosoma brucei brucei (strain 927/4 GUTat10.1), UniProt Q388H8); assay: biochemical; format: biochemical; conditions: read-out: IC50 (μM) NMT Enzyme
[2] = tested on: Trypanosome (T. brucei brucei); assay: In-vitro antitrypanosomal efficacy assay (cell growth, resazurin); format: cell-based
Experimental: To column 12, 200 μl media was added to provide a no cells control. Plates were then incubated at 37° C. in an atmosphere of 5% CO2 for 69 hours, before the addition of 20 μl of 500 μM rezasurin solution, and a further incubation period of 4 hours. […] Concentration effect curves were fitted using non-linear regression using XLFit 4.2 and EC50 values determined.

[3] = value with no enzyme tag in the cell, taken as T. brucei NMT
[4] = value printed without enzyme tag in the NMT Enzyme column (taken as T. brucei NMT)
[5] = T. brucei brucei, blood stream form, variant 221

T. brucei N-myristoyl transferase, sequence (Q388H8 1-446): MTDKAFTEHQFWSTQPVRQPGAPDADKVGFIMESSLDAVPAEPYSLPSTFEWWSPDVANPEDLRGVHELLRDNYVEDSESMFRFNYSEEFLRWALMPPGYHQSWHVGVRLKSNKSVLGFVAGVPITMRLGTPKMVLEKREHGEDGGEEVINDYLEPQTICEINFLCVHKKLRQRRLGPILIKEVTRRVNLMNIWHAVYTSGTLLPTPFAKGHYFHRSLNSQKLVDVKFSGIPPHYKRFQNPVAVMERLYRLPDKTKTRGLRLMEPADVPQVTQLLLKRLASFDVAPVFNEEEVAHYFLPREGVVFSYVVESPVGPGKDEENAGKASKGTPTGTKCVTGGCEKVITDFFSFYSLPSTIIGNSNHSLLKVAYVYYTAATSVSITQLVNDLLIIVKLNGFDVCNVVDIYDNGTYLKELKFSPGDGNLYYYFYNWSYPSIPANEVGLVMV

SMILES	IC50 [1, 3]	ED50 (μM) T. brucei ([2]; T. brucei cell growth)	IC50 [1, 4]	ED50 (μM) T. brucei [2, 5]
Cc1nn(C)c(C)c1N[S+](=O)([O-])c1c(Cl)cc(-c2ccnc(NCCN)c2)cc1Cl	1 µM	>1 µM	–	–
Cc1nn(C)c(C)c1N[S+](=O)([O-])c1ccc(NCCCN2CCN(Cc3ccccc3)CC2)nc1 [DD86299]	1 µM	>1 µM	–	–
Cc1nn(C)c(C)c1N[S+](=O)([O-])c1ccc2c(c1)OCCO2 [DDD16771]	–	>1 µM	4 µM	–
Cc1cc(N2CCCC2=O)cc(C)c1[S+](=O)([O-])Nc1c(C)nn(C)c1C [DDD22988]	–	>1 µM	8.3 µM	–
Cc1nn(C)c(C)c1N[S+](=O)([O-])c1ccccc1 [DDD48025]	–	>1 µM	11.8 µM	–
Cc1nn(C)c(C)c1N[S+](=O)([O-])c1cc(Cl)sc1Cl [DDD61495]	–	>1 µM	6.4 µM	–
COc1ccc(OC)c([S+](=O)([O-])Nc2c(C)nn(C)c2C)c1 [DDD64750]	–	>1 µM	30 µM	–
Cc1nn(C)c(C)c1N[S+](=O)([O-])c1ccc2c(c1)OCCCO2 [DDD71230]	–	>1 µM	3.5 µM	–
CC(=O)c1ccc([S+](=O)([O-])Nc2c(C)nn(C)c2C)cc1 [DDD71232]	–	>1 µM	42 µM	–
COc1ccc([S+](=O)([O-])Nc2c(C)nn(C)c2C)cc1Br [DDD71233]	–	>1 µM	2.6 µM	–
Cc1nn(C)c(C)c1N[S+](=O)([O-])c1ccc(OC(F)(F)F)cc1 [DDD71234]	–	>1 µM	2.7 µM	–
CC(=O)N1CCc2cc([S+](=O)([O-])Nc3c(C)nn(C)c3C)ccc21 [DDD71237]	–	>1 µM	8.8 µM	–
Cc1nn(C)c(C)c1N[S+](=O)([O-])c1ccc(C#N)cc1 [DDD71238]	–	>1 µM	32.6 µM	–
Cc1nn(C)c(C)c1N[S+](=O)([O-])c1cccc(Br)c1 [DDD71240]	–	>1 µM	8 µM	–
Cc1nn(C)c(C)c1N[S+](=O)([O-])c1ccc(C(C)C)cc1 [DDD71241]	–	>1 µM	1.5 µM	–
CCC(C)c1ccc([S+](=O)([O-])Nc2c(C)nn(C)c2C)cc1 (centres unmarked) [DDD71242]	–	>1 µM	4.3 µM	–
Cc1cc(C(C)(C)C)cc(C)c1[S+](=O)([O-])Nc1c(C)nn(C)c1C [DDD71243]	–	5.8 µM	0.5 µM	–
Cc1nn(C)c(C)c1N[S+](=O)([O-])c1ccc2c(c1)CC(=O)N2 [DDD71244]	–	>1 µM	15.9 µM	–
Cc1nn(C)c(C)c1N[S+](=O)([O-])c1ccccc1F [DDD71245]	–	>1 µM	5.6 µM	–
Cc1nn(C)c(C)c1N[S+](=O)([O-])c1ccc2ccccc2c1 [DDD71246]	–	>1 µM	8.4 µM	–
Cc1nn(C)c(C)c1N[S+](=O)([O-])c1ccc2c(c1)CCC(=O)N2 [DDD71247]	–	>1 µM	3.4 µM	–
Cc1nn(C)c(C)c1N[S+](=O)([O-])c1c(C)c(C)c(C)c(C)c1C [DDD71248]	–	>1 µM	62.5 µM	–

SMILES	IC50 [1, 3]	ED50 (μM) T. brucei ([2]; T. brucei cell growth)	IC50 [1, 4]	ED50 (μM) T. brucei [2, 5]
Cc1ccc(C(C)(C)C)cc1[S+](=O)([O-])Nc1c(C)nn(C)c1C [DDD71251]	–	>1 µM	> 100 µM	–
Cc1nn(C)c(C)c1N[S+](=O)([O-])c1ccc(Cl)c(C(F)(F)F)c1 [DDD71252]	–	>1 µM	17.4 µM	–
Cc1nn(C)c(C)c1N[S+](=O)([O-])c1ccc2c(c1)CCC2 [DDD71253]	–	>1 µM	5.6 µM	–
Cc1nn(C)c(C)c1N[S+](=O)([O-])c1ccc(N2CCOCC2)nc1 [DDD71274]	–	>1 µM	2 µM	–
COc1ccc(OCCC[S+](=O)([O-])Nc2c(C)nn(C)c2C)cc1 [DDD71275]	–	>1 µM	62 µM	–
Cc1nn(C)c(C)c1N[S+](=O)([O-])c1ccc(C2OCCO2)cc1 [DDD71276]	–	>1 µM	9.5 µM	–
COc1cc(C)c([S+](=O)([O-])Nc2cnc3ccccn23)c(C)c1C [DDD71277]	–	>1 µM	95 µM	–
Cc1nc(-c2ccc([S+](=O)([O-])Nc3c(C)nn(C)c3C)cc2)cs1 [DDD71278]	–	>1 µM	12.1 µM	–
COc1cc(C)c([S+](=O)([O-])Nc2cccnc2C)c(C)c1C [DDD71279]	–	>1 µM	10 µM	–
COc1cc(C)c([S+](=O)([O-])Nc2ccncc2)c(C)c1C [DDD71280]	–	>1 µM	> 100 µM	–
Cc1nn(C)c(C)c1N[S+](=O)([O-])c1ccc2c(c1)OCCN2C [DDD71281]	–	>1 µM	16.1 µM	–
Cc1nn(C)c(C)c1N[S+](=O)([O-])c1ccc2c(c1)OCO2 [DDD71282]	–	>1 µM	4 µM	–
Cc1nn(C)c(C)c1N[S+](=O)([O-])c1cccc2cccnc12 [DDD71283]	–	>1 µM	7.4 µM	–
COc1cc(C)c([S+](=O)([O-])Nc2onc(C)c2C)c(C)c1C [DDD71284]	–	>1 µM	> 100 µM	–
COc1cc(C)c([S+](=O)([O-])Nc2c(C)noc2C)c(C)c1C [DDD71285]	–	>1 µM	19.3 µM	–
COc1ccc([S+](=O)([O-])Nc2c(C)nn(C)c2C)cc1 [DDD71286]	–	>1 µM	9.8 µM	–
CC(=O)Nc1ccc([S+](=O)([O-])Nc2c(C)nn(C)c2C)cc1 [DDD71287]	–	>1 µM	2.8 µM	–
COc1cc(C)c([S+](=O)([O-])Nc2cccnc2)c(C)c1C [DDD71288]	–	>1 µM	> 100 µM	–
COc1ccc([S+](=O)([O-])Nc2c(C)nn(C)c2C)cc1OC [DDD71290]	–	>1 µM	41 µM	–
COc1cc(C)c([S+](=O)([O-])Nc2ccccc2)c(C)c1C [DDD71292]	–	>1 µM	> 100 µM	–
Cc1nn(C)c(C)c1N[S+](=O)([O-])Cc1ccccc1 [DDD71293]	–	>1 µM	> 100 µM	–
Cc1nn(C)c(C)c1N[S+](=O)([O-])c1ccc(-n2cccn2)cc1 [DDD71294]	–	>1 µM	4.8 µM	–

SMILES	IC50 [1, 3]	ED50 (μM) T. brucei ([2]; T. brucei cell growth)	IC50 [1, 4]	ED50 (μM) T. brucei [2, 5]
COc1cc(C)c([S+](=O)([O-])Nc2ccncn2)c(C)c1C [DDD71295]	–	>1 µM	30 µM	–
COc1cc(C)c([S+](=O)([O-])NCc2c(C)nn(C)c2C)c(C)c1C [DDD71296]	–	>1 µM	> 100 µM	–
Cc1nn(C)c(C)c1N[S+](=O)([O-])c1ccc(-c2ccccc2)cc1 [DDD71297]	–	>1 µM	10.5 µM	–
Cc1nn(C)c(C)c1N[S+](=O)([O-])c1ccc(Cl)c(Cl)c1 [DDD00071594]	–	>1 µM	9.9 µM	–
COc1cc(C)c([S+](=O)([O-])N2CCCc3ncccc32)c(C)c1C [DDD71600]	–	>1 µM	51 µM	–
COc1cc(C)c([S+](=O)([O-])Nc2c(C)n[nH]c2C)c(C)c1C [DDD71601]	–	>1 µM	> 100 µM	–
Cc1nn(C)c(C)c1N[S+](=O)([O-])c1ccc([S+](=O)([O-])N2CCCC2)cc1 [DDD71607]	–	>1 µM	> 100 µM	–
Cc1cc(C(=O)O)cc([S+](=O)([O-])Nc2c(C)nn(C)c2C)c1C [DDD71608]	–	>1 µM	> 100 µM	–
COc1ccc([S+](=O)([O-])Nc2c(C)nn(C)c2C)cc1NC(C)=O [DDD71622]	–	>1 µM	41 µM	–
Cc1nn(C)c(C)c1N(C(F)F)[S+](=O)([O-])c1c(Cl)cc(CCCN2CCCNCC2)cc1Cl [DDD100166]	–	–	–	0.002 µM
Cc1nn(C)c(C)c1N(CC(F)(F)F)[S+](=O)([O-])c1c(Cl)cc(CCCCC2CCNCC2)cc1Cl [DDD100167]	–	–	–	0.014 µM
Cc1c(N[S+](=O)([O-])c2ccc(-c3cccc(CN4[C@@H](C)CC[C@@H]4C)c3)cc2)c(CC(C)C)nn1C [DDD100790]	–	–	–	0.269 µM
CCc1nccn1CCCCCCc1cc(Cl)c([S+](=O)([O-])N(c2c(C)nn(C)c2C)C(F)F)c(Cl)c1 [DDD100794]	–	–	–	0.160 µM
Cc1nn(C)c(C)c1N(C(F)F)[S+](=O)([O-])c1c(Cl)cc(CCCCCCn2ccnc2C)cc1Cl [DDD100795]	–	–	–	0.005 µM
Cc1nn(C)c(C)c1N(CC(F)F)[S+](=O)([O-])c1c(Cl)cc(CCCN2CCCN(C)CC2)cc1Cl [DDD100802]	–	–	–	0.004 µM
Cc1nn(C)c(C)c1N(CC(F)(F)F)[S+](=O)([O-])c1c(Cl)cc(CCCOC2CCN(C)CC2)cc1Cl [DDD100803]	–	–	–	0.008 µM
Cc1nn(C)c(C)c1N(C(F)F)[S+](=O)([O-])c1c(Cl)cc(Br)cc1Cl [DDD100805, 4-bromo-2,6-dichloro-N-(difluoromethyl)-N-(1,3,5-trimethyl-1H-pyrazol-4-yl)benzenesulfonamide]	–	–	–	>1 µM
Cc1c(N[S+](=O)([O-])c2ccc(-c3cccc(C(C)(C)N)c3)cc2)c(CC(C)C)nn1C [DDD100870]	–	–	–	0.013 µM
Cc1nn(C)c(C)c1N(C(F)F)[S+](=O)([O-])c1c(Cl)cc(CCCOC2CN3CCC2CC3)cc1Cl (centres unmarked) [DDD100872]	–	–	–	0.002 µM
Cc1c(N(C(F)F)[S+](=O)([O-])c2c(Cl)cc(-c3ccnc(N4CCNCC4)c3)cc2Cl)c(CC(C)C)nn1C [DDD100886]	–	–	–	0.004 µM
Cc1nn(C)c(C)c1N(C(F)F)[S+](=O)([O-])c1ccc(-c2ccnc(N3CCNCC3)c2)cc1 [DDD100888]	–	–	–	0.003 µM
Cc1nn(C)c(C)c1N(C(F)F)[S+](=O)([O-])c1ccc(-c2cccc(C3CCNCC3)c2)cc1 [DDD100891]	–	–	–	0.129 µM
